Tested on: 349418-098-R-PDC complex spheroid growth
Assay: Anticancer human tumor 349418-098-R-PDC patient-derived lung adenocarcinoma cell line growth inhibition [AhR]
Conditions: for IC50: curve of first compound; for viability, T/C: stronger effect = lower value
Procedure, shortened: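 Complex tumor spheroids co-cultured with HUVEC and human MSC stroma; AhR antagonists tested in combination with standard-of-care and investigational agents. Top concentration at or near clinical Cmax (else 10 microM), half-log dilutions; growth expressed as percent test/control.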

[1] = second compound 0.1 µM, first compound 0.0316 µM
[2] = second compound 0.1 µM, first compound 0.1 µM
[3] = second compound 0.1 µM, first compound 0.316 µM
[4] = second compound 0.1 µM, first compound 1 µM
[5] = second compound 0.1 µM, first compound 3.16 µM
[6] = second compound 0.1 µM, first compound 10 µM
[7] = second compound 0.316 µM, first compound 0.0316 µM
[8] = second compound 0.316 µM, first compound 0.1 µM
[9] = second compound 0.316 µM, first compound 0.316 µM
[10] = second compound 0.316 µM, first compound 1 µM
[11] = second compound 0.316 µM, first compound 3.16 µM
[12] = second compound 0.316 µM, first compound 10 µM
[13] = second compound 1 µM, first compound 0.0316 µM
[14] = second compound 1 µM, first compound 0.1 µM
[15] = second compound 1 µM, first compound 0.316 µM
[16] = second compound 1 µM, first compound 1 µM
[17] = second compound 1 µM, first compound 3.16 µM
[18] = second compound 1 µM, first compound 10 µM
[19] = second compound 3.16 µM, first compound 0.0316 µM
[20] = second compound 3.16 µM, first compound 0.1 µM
[21] = second compound 3.16 µM, first compound 0.316 µM
[22] = second compound 3.16 µM, first compound 1 µM
[23] = second compound 3.16 µM, first compound 3.16 µM
[24] = second compound 3.16 µM, first compound 10 µM
[25] = second compound 10 µM, first compound 0.0316 µM
[26] = second compound 10 µM, first compound 0.1 µM
[27] = second compound 10 µM, first compound 0.316 µM
[28] = second compound 10 µM, first compound 1 µM
[29] = second compound 10 µM, first compound 3.16 µM
[30] = second compound 10 µM, first compound 10 µM
[31] = second compound 0.1 µM, first compound 0.00949 µM
[32] = second compound 0.1 µM, first compound 0.03 µM
[33] = second compound 0.1 µM, first compound 0.0949 µM
[34] = second compound 0.1 µM, first compound 0.3 µM
[35] = second compound 0.316 µM, first compound 0.00949 µM
[36] = second compound 0.316 µM, first compound 0.03 µM
[37] = second compound 0.316 µM, first compound 0.0949 µM
[38] = second compound 0.316 µM, first compound 0.3 µM
[39] = second compound 1 µM, first compound 0.00949 µM
[40] = second compound 1 µM, first compound 0.03 µM
[41] = second compound 1 µM, first compound 0.0949 µM
[42] = second compound 1 µM, first compound 0.3 µM
[43] = second compound 3.16 µM, first compound 0.00949 µM
[44] = second compound 3.16 µM, first compound 0.03 µM
[45] = second compound 3.16 µM, first compound 0.0949 µM
[46] = second compound 3.16 µM, first compound 0.3 µM
[47] = second compound 10 µM, first compound 0.00949 µM
[48] = second compound 10 µM, first compound 0.03 µM
[49] = second compound 10 µM, first compound 0.0949 µM
[50] = second compound 10 µM, first compound 0.3 µM
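Also: spheroids exposed to agents for seven days before luminescence viability read.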
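For viability, T/C in this document: spheroids also contain HUVEC endothelial cells and human MSC stroma.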

Structure (SMILES): CC1(C)CCC(CN2CCN(c3ccc(C(=O)NS(=O)(=O)c4ccc(NCC5CCOCC5)c([N+](=O)[O-])c4)c(Oc4cnc5[nH]ccc5c4)c3)CC2)=C(c2ccc(Cl)cc2)C1 + Cc1ccccc1N=Nc1ccc(NC(=O)c2ccnn2C)c(C)c1
- IC50 (second compound 0.1 µM): 5800 nM
- IC50 (second compound 0.316 µM): 6030 nM
- IC50 (second compound 1 µM): 6540 nM
- IC50 (second compound 3.16 µM): 3540 nM
- IC50 (second compound 10 µM): 3260 nM
- viability, T/C [1]: 116%
- viability, T/C [2]: 111%
- viability, T/C [3]: 116%
- viability, T/C [4]: 92.9%
- viability, T/C [5]: 71.6%
- viability, T/C [6]: 31.6%
- viability, T/C [7]: 81.5%
- viability, T/C [8]: 81.1%
- viability, T/C [9]: 64.4%
- viability, T/C [10]: 70%
- viability, T/C [11]: 86.1%
- viability, T/C [12]: 29.1%
- viability, T/C [13]: 101%
- viability, T/C [14]: 82.1%
- viability, T/C [15]: 84.7%
- viability, T/C [16]: 79.7%
- viability, T/C [17]: 85.7%
- viability, T/C [18]: 29.2%
- viability, T/C [19]: 76.9%
- viability, T/C [20]: 65.9%
- viability, T/C [21]: 73.3%
- viability, T/C [22]: 66.1%
- viability, T/C [23]: 52%
- viability, T/C [24]: 26%
- viability, T/C [25]: 54.6%
- viability, T/C [26]: 59.8%
- viability, T/C [27]: 65.1%
- viability, T/C [28]: 51.8%
- viability, T/C [29]: 52%
- viability, T/C [30]: 25.9%

Structure (SMILES): CC1COCCN1c1cc(C2(S(C)(=N)=O)CC2)nc(-c2ccnc3[nH]ccc23)n1 (stereo not given) + Cc1ccccc1N=Nc1ccc(NC(=O)c2ccnn2C)c(C)c1
- IC50 (second compound 0.1 µM): 2080 nM
- IC50 (second compound 0.316 µM): 2000 nM
- IC50 (second compound 1 µM): 1960 nM
- IC50 (second compound 3.16 µM): 2040 nM
- IC50 (second compound 10 µM): 1030 nM
- viability, T/C [1]: 87%
- viability, T/C [2]: 110%
- viability, T/C [3]: 86.5%
- viability, T/C [4]: 83.6%
- viability, T/C [5]: 31%
- viability, T/C [6]: 14.4%
- viability, T/C [7]: 87.8%
- viability, T/C [8]: 78%
- viability, T/C [9]: 78.6%
- viability, T/C [10]: 89.7%
- viability, T/C [11]: 27.7%
- viability, T/C [12]: 13.4%
- viability, T/C [13]: 89.2%
- viability, T/C [14]: 123%
- viability, T/C [15]: 86.8%
- viability, T/C [16]: 66.8%
- viability, T/C [17]: 39.9%
- viability, T/C [18]: 16%
- viability, T/C [19]: 90.8%
- viability, T/C [20]: 76.9%
- viability, T/C [21]: 97.9%
- viability, T/C [22]: 79.3%
- viability, T/C [23]: 31.8%
- viability, T/C [24]: 15.3%
- viability, T/C [25]: 69.5%
- viability, T/C [26]: 70.1%
- viability, T/C [27]: 56.6%
- viability, T/C [28]: 55.5%
- viability, T/C [29]: 28.9%
- viability, T/C [30]: 17.1%

Structure (SMILES): CCN(c1cc(-c2ccc(CN3CCOCC3)cc2)cc(C(=O)NCc2c(C)cc(C)[nH]c2=O)c1C)C1CCOCC1 + Cc1ccccc1N=Nc1ccc(NC(=O)c2ccnn2C)c(C)c1
- IC50 (second compound 0.1 µM): > 3000 nM
- IC50 (second compound 0.316 µM): > 3000 nM
- IC50 (second compound 1 µM): 1550 nM
- IC50 (second compound 3.16 µM): 1450 nM
- IC50 (second compound 10 µM): 154 nM
- viability, T/C [31]: 68.2%
- viability, T/C [32]: 97.2%
- viability, T/C [33]: 67.4%
- viability, T/C [34]: 56.3%
- viability, T/C (second compound 0.1 µM, first compound 0.949 µM): 86.4%
- viability, T/C (second compound 0.1 µM, first compound 3 µM): 53.1%
- viability, T/C [35]: 101%
- viability, T/C [36]: 69.1%
- viability, T/C [37]: 95.9%
- viability, T/C [38]: 72.4%
- viability, T/C (second compound 0.316 µM, first compound 0.949 µM): 70.4%
- viability, T/C (second compound 0.316 µM, first compound 3 µM): 64%
- viability, T/C [39]: 87.8%
- viability, T/C [40]: 121%
- viability, T/C [41]: 85.5%
- viability, T/C [42]: 78.3%
- viability, T/C (second compound 1 µM, first compound 0.949 µM): 56.5%
- viability, T/C (second compound 1 µM, first compound 3 µM): 42%
- viability, T/C [43]: 76.8%
- viability, T/C [44]: 68.9%
- viability, T/C [45]: 75.2%
- viability, T/C [46]: 59%
- viability, T/C (second compound 3.16 µM, first compound 0.949 µM): 55.8%
- viability, T/C (second compound 3.16 µM, first compound 3 µM): 42.3%
- viability, T/C [47]: 59.4%
- viability, T/C [48]: 71.1%
- viability, T/C [49]: 54.9%
- viability, T/C [50]: 38.4%
- viability, T/C (second compound 10 µM, first compound 0.949 µM): 49.2%
- viability, T/C (second compound 10 µM, first compound 3 µM): 42.1%

Structure (SMILES): Nc1ncn(C2CC(O)C(CO)S2)c(=O)n1 (stereo not given) + Cc1ccccc1N=Nc1ccc(NC(=O)c2ccnn2C)c(C)c1
- IC50 (second compound 0.1 µM): 90.5 nM
- IC50 (second compound 0.316 µM): 80.4 nM
- IC50 (second compound 1 µM): 63.9 nM
- IC50 (second compound 3.16 µM): 109 nM
- IC50 (second compound 10 µM): 56.9 nM
- viability, T/C (second compound 0.1 µM, first compound 0.000949 µM): 116%
- viability, T/C (second compound 0.1 µM, first compound 0.003 µM): 87.8%
- viability, T/C [31]: 83.4%
- viability, T/C [32]: 59.1%
- viability, T/C [33]: 60.5%
- viability, T/C [34]: 28.6%
- viability, T/C (second compound 0.316 µM, first compound 0.000949 µM): 111%
- viability, T/C (second compound 0.316 µM, first compound 0.003 µM): 63.5%
- viability, T/C [35]: 105%
- viability, T/C [36]: 70.2%
- viability, T/C [37]: 47.7%
- viability, T/C [38]: 26.6%
- viability, T/C (second compound 1 µM, first compound 0.000949 µM): 91.5%
- viability, T/C (second compound 1 µM, first compound 0.003 µM): 92.7%
- viability, T/C [39]: 98.7%
- viability, T/C [40]: 67.5%
- viability, T/C [41]: 41.4%
- viability, T/C [42]: 20.8%
- viability, T/C (second compound 3.16 µM, first compound 0.000949 µM): 52.2%
- viability, T/C (second compound 3.16 µM, first compound 0.003 µM): 72.7%
- viability, T/C [43]: 72.2%
- viability, T/C [44]: 66.2%
- viability, T/C [45]: 54.5%
- viability, T/C [46]: 18.1%
- viability, T/C (second compound 10 µM, first compound 0.000949 µM): 73.6%
- viability, T/C (second compound 10 µM, first compound 0.003 µM): 67.5%
- viability, T/C [47]: 65.7%
- viability, T/C [48]: 62.1%
- viability, T/C [49]: 40.8%
- viability, T/C [50]: 28.9%

— PubChem BioAssay AID1918996 (Molecular Pharmacology Branch, DTP, NCI, 2023)
